Literature values in patent US6174886A, “Antipsychotic use of triazolo-pyridazine derivatives” (Merck Sharp & Dohme Ltd., priority 1997, dated 2001).

Tested on: schizophrenic patients with an acute psychotic episode

## CC(C)(C)OC(=O)c1ncn2c1[C@@H]1CCCN1C(=O)c1c(Br)cccc1-2 [bretazenil]
  antipsychotic efficacy: moderate antipsychotic efficacy
  most frequent adverse reaction reported in the study: sedation
